Among the data in US20240402196A1 (Exact Sciences Corporation, priority 2018, published 2024) are Results values, retold here.

Structures can show the parent of a compound that is named as a salt.

In assay [1] the target is T1, hemoglobin in stool samples (Homo sapiens, UniProt P68871+P69905). The experiment in a line: 3-Day shipping simulation, hemoglobin % recovery by ELISA.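 Also: stool samples put through shipping stress in a thermal cycler, hemoglobin quantified by ELISA before and after, stability given as post-stress % of the pre-stress level.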 The arrangement: from tissue; host or cells: stool samples.
In assay [2] the target is T1, hemoglobin in stool samples. The experiment in a line: Accelerated shipping simulation (35C 16 hour challenge), hemoglobin % recovery by ELISA.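 Also: stool hemoglobin measured by ELISA before and after thermal-cycler shipping stress, stability given as percent of pre-stress hemoglobin recovered afterwards.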 The arrangement: from tissue; host or cells: stool samples.

T1 sequence (P69905 2-142 limits assumed): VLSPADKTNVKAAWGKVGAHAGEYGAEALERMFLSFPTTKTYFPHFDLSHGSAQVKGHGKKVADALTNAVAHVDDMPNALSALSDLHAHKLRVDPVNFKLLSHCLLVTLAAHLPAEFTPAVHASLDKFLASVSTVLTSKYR
T1 sequence (P68871 2-147 limits assumed): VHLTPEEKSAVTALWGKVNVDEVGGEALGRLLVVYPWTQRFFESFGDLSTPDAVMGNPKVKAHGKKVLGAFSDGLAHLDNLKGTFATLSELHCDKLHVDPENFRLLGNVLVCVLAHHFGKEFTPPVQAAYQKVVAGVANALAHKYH

Turning to `O=c1cc(-c2ccccc2)oc2c(O)c(O)ccc12` [7,8 dihydroxyflavone], the Results result in assay [1] (additive concentration 0.5 mM) and in assay [1] (additive concentration 1 mM) was “No improvement” throughout.

For the compound `O=[N+]([O-])C1(Br)COCOC1` [Bronidox], the Results result in assay [1] (Additive Concentration 0.0002%), in assay [1] (Additive Concentration 0.0010%) and in assay [1] (Additive Concentration 0.0020%) was “No improvement” throughout.

Consider `CCC(=O)[O-].CCC(=O)[O-].[Ca+2]` [Calcium Propionate], for which the Results result in assay [1] (additive concentration 5 mM), in assay [1] (additive concentration 10 mM), in assay [1] (additive concentration 20 mM), in assay [1] (additive concentration 30 mM), in assay [1] (additive concentration 40 mM) and in assay [1] (additive concentration 50 mM) was “Calcium cation shows” each time.

`[Cl][Co][Cl]` [Cobalt Chloride]: the Results entry in assay [1] (additive concentration 0.001M), in assay [1] (additive concentration 0.01M) and in assay [1] (additive concentration 0.05M) was “No Improvement” throughout.

Regarding `[Cl][Cu][Cl]` [Copper Chloride], the Results entry in assay [1] (additive concentration 1 mM), in assay [1] (additive concentration 10 mM) and in assay [1] (additive concentration 25 mM) was “No Improvement” throughout.

As to `O=c1c(-c2ccc(O)cc2)coc2cc(O)ccc12` [Diadzein], the Results entry in assay [1] (Additive Concentration 60 mM), in assay [1] (additive concentration 25 uM), in assay [1] (additive concentration 50 uM), in assay [1] (additive concentration 100 uM), in assay [1] (additive concentration 40 mM) and in assay [1] (additive concentration 50 mM) was “No improvement” each time.

For `C=O` [Formaldehyde Solution], the Results result in assay [1] (additive concentration 0.010%), in assay [1] (additive concentration 0.020%), in assay [1] (additive concentration 0.030%), in assay [1] (additive concentration 0.035%), in assay [1] (additive concentration 0.040%) and in assay [1] (additive concentration 0.050%) was “No Improvement” each time. Moreover, the Results result in assay [1] (additive concentration 0.060%), in assay [1] (additive concentration 0.070%), in assay [1] (additive concentration 0.080%), in assay [1] (additive concentration 0.090%), in assay [1] (additive concentration 0.100%) and in assay [1] (additive concentration […]) was “No Improvement” each time.

As to `O=CCCCC=O` [Glutaraldehyde Solution], the Results entry in assay [1] (additive concentration 0.010%), in assay [1] (additive concentration 0.020%), in assay [1] (additive concentration 0.030%), in assay [1] (additive concentration 0.035%), in assay [1] (additive concentration 0.040%) and in assay [1] (additive concentration 0.050%) was “No Improvement” in each case. Further, the Results result in assay [1] (additive concentration 0.060%) is on record as “Assay Interference”; in assay [1] (additive concentration 0.070%), “Assay Interference”; in assay [1] (additive concentration 0.080%), “No Improvement”; in assay [1] (additive concentration 0.090%) it was “No Improvement”; in assay [1] (additive concentration 0.100%) it was “No Improvement”.

With `[Cl][Fe]([Cl])[Cl]` [Iron (3) Chloride], the Results entry in assay [1] (additive concentration 1 mM), in assay [1] (additive concentration 5 mM) and in assay [1] (additive concentration 10 mM) was “No Improvement” throughout.

For the compound `Cn1sccc1=O` [Methylisothiazolone], the Results entry in assay [1] (Additive Concentration 0.0001%), in assay [1] (Additive Concentration 0.0002%), in assay [1] (Additive Concentration 0.0010%), in assay [1] (Additive Concentration 0.0020%) and in assay [1] (additive concentration 0.00005%) was “No improvement” each time.

`[Cl][Ni][Cl]` [Nickel Chloride]: the Results entry in assay [1] (additive concentration 1 mM), in assay [1] (additive concentration 10 mM) and in assay [1] (additive concentration 25 mM) was “No Improvement” in each case.

In the case of `C=CC1=C(C)c2cc3[n-]c(cc4nc(cc5[n-]c(cc1n2)c(C)c5C=C)C(C)=C4CCC(=O)O)c(CCC(=O)O)c3C.[Cl-].[Co+3]` [Protoporphyrin IX Cobalt (Vendor 3)], the Results entry in assay [2] (additive concentration 1.25 uM) and in assay [2] (additive concentration 5 uM) was “Improvement in % Hb” in each case.

For the compound `C=CC1=C(C)c2cc3[n-]c(cc4nc(cc5[n-]c(cc1n2)c(C)c5C=C)C(C)=C4CCC(=O)O)c(CCC(=O)O)c3C.[Cl-].[Ga+3]` [Protoporphyrin IX Gallium], the Results result in assay [2] (additive concentration 1.25 uM) and in assay [2] (additive concentration 5 uM) was “No Improvement” throughout.

For the compound `OC[C@H]1O[C@H](OC[C@H]2O[C@H](O[C@]3(CO)O[C@H](CO)[C@@H](O)[C@@H]3O)[C@H](O)[C@@H](O)[C@@H]2O)[C@H](O)[C@@H](O)[C@H]1O` [Raffinose], the Results result is “No Improvement” in assay [2] (additive concentration 5 uM), “No Improvement” in assay [2] (additive concentration 50 uM), “No Improvement” in assay [2] (additive concentration 5 mM) and “No improvement” in assay [2] (additive concentration 24 mM).

On to `Oc1ccc(C=Cc2cc(O)cc(O)c2)cc1` [Resveratrol], for which the Results result in assay [1] (Additive Concentration 10 mM), in assay [1] (additive concentration 5 mM) and in assay [1] (additive concentration 20 mM) was “No improvement” each time.

Consider `[F-].[Na+]` [Sodium Fluoride], for which the Results entry in assay [2] (additive concentration 85 uM) and in assay [2] (additive concentration 850 uM) was “No Improvement” each time.

For `O=S([O-])([O-])=S.[Na+].[Na+]` [Sodium Thiosulfate], in assay [2], the Results entry is recorded as “No Improvement”.

Consider `O=C([O-])CNCO.[Na+]` [Soduim hyrdoxylmethyl glycinate], for which the Results result in assay [1] (additive concentration 10 mM), in assay [1] (additive concentration 25 mM), in assay [1] (additive concentration 50 mM), in assay [1] (additive concentration 75 mM) and in assay [1] (additive concentration 90 mM) was “No Improvement” in each case.

Take `O=C(O)CCP(CCC(=O)O)CCC(=O)O` [TCEP]: the Results result in assay [2] (additive concentration 0.005 mM), in assay [2] (additive concentration 0.01 mM), in assay [2] (additive concentration 0.1 mM), in assay [2] (additive concentration 250 uM), in assay [2] (additive concentration 500 uM) and in assay [2] (additive concentration 750 uM) was “No Improvement” in each case. Also, in assay [2] (additive concentration 1 mM), the Results entry is “No Improvement”.

For `Cc1c(C)c2c(c(C)c1O)CCC(C)(CCCC(C)CCCC(C)CCCC(C)C)O2` (stereo not drawn) [Tocopherol], the Results entry in assay [1] (Additive Concentration 0.10%), in assay [1] (Additive Concentration 1%) and in assay [1] (Additive Concentration 10%) was “No improvement” each time.

In the case of `NC(N)=O` [Urea], the Results entry in assay [2] (additive concentration 25 uM), in assay [2] (additive concentration 250 uM), in assay [2] (additive concentration 500 uM), in assay [2] (additive concentration 5 mM), in assay [2] (additive concentration 50 mM) and in assay [2] (additive concentration 100 mM) was “No Improvement” each time.

As for `O=c1[nH]c(=O)c2[nH]c(=O)[nH]c2[nH]1` [Uric Acid], the Results result in assay [2] (additive concentration 0.6 uM), in assay [2] (additive concentration 6 uM) and in assay [2] (additive concentration 60 uM) was “No Improvement” throughout.

In the case of `Cc1ncc(CO)c(CO)c1O` [Vitamine B6 in HCl], the Results result in assay [1] (additive concentration 0.5 mM), in assay [1] (additive concentration 1 mM) and in assay [1] (additive concentration 2 mM) was “No improvement” throughout.

For Deferoxamine Mesylate Salt, the Results result in assay [2] (additive concentration 10 uM), in assay [2] (additive concentration 100 uM), in assay [2] (additive concentration 1 mM) and in assay [2] (additive concentration 5 mM) was “No Improvement” each time.

Consider Dextran Sulphate, for which the Results result in assay [2] (Additive Concentration 1 uM), in assay [2] (additive concentration 0.2 uM), in assay [2] (additive concentration 2 uM) and in assay [2] (additive concentration 0.5 mM) was “No Improvement” throughout.

In the case of Heparin, the Results entry in assay [2] (additive concentration 25 uM) and in assay [2] (additive concentration 250 uM) was “No Improvement” each time.
